Data published in publication PMC8567874, “Metronomic delivery of orally available pemetrexed-incorporated colloidal dispersions for boosting tumor-specific immunity” (Drug Delivery, 2021).

Legend:
[1] = test system: CT26.CL25 tumor-bearing mice; type: in vivo; conditions: 27 days after drug treatment, IV 150 mg/kg PMX
Method: To investigate the antitumor efficacy of oral PMX/DL(1:1)-CD and IV PMX given in combination with intraperitoneal aPD-1, 1 × 10^6 of CT26.CL25 cells in 100 µL of PBS (pH 7.4) were subcutaneously inoculated into each BALB/c mouse. When the average tumor volume reached 50–70 mm^3, mice were randomly divided into seven groups (10 mice per group): control (untreated), PMX-IV (150) (IV administration of 150 mg/kg PMX once every 3 weeks), aPD-1 (10) (intraperitoneal administration of 10 mg/kg aPD-1 once every 3 days), PMX-Oral (20) (once-daily oral administration equivalent to 20 mg/kg PMX), PMX/DL-CD (20) [once-daily oral administration PMX/DL(1:1)-CD equivalent to 20 mg/kg PMX], PMX-IV (150) + aPD-1 (10) (combination of IV administration of 150 mg/kg PMX once every 3 weeks, and intraperitoneal administration of 10 mg/kg aPD-1 once every 3 days), and PMX/DL-CD (20) + aPD-1 (10) (a combination of once-daily oral administration of PMX/DL(1:1)-CD equivalent to 20 mg/kg PMX and intraperitoneal administration of 10 mg/kg aPD-1 once every 3 days). During treatments, body weights and tumor volumes of mice in all seven groups were monitored once every 3 days, for 27 days. Tumor volumes in each mouse were calculated based on the following formula: 0.52 × a^2 × b, where a and b were the tumor widths and lengths, respectively.

[2] = Octanol/water apparent partition coefficient; type: physicochemical; conditions: n = 4, read-out: Log P (logarithm of the octanol/water partition coefficient)
Text: ^aLogarithm of the octanol/water partition coefficient. Each value represents the mean ± standard deviation (n = 4).

[3] = test system: LLC cell-bearing mice; experiment: In vivo antitumor efficacy in LLC cell-bearing mice; design: species or system C57BL/6 mice
Method: The in vivo dose-dependent antitumor effects of oral PMX/DL(1:1)-CD compared to PMX-IV were evaluated by inoculating LLC cells at a density of 1 × 10^6 cells/100 μL PBS (pH 7.4) into the right dorsal flanks of 6-week-old female C57BL/6 mice. The oral doses for PMX/DL(1:1)-CD with antitumor activities without toxic effects were determined based on our previous study (Maharjan et al., [2019]). […] The body weights and tumor volumes of all mice were measured every 3 days. Tumor volume was then calculated as a^2 × b × 0.52, where a and b were the width and length of the tumor, respectively. The mice were sacrificed and the tumor masses were measured 21 days after drug administration.

[4] = test system: CT26.CL25 cells; experiment: Immunoblotting of CRT and HMGB-1; type: cell-based; conditions: CT26.CL25, 300 µM, 48 h, western blot
Method: CT26.CL25 cells (1 × 10^5 per well) cultured in 6-well plates were treated with 300 µM DL, 300 µM PMX or PMX/DL (equivalent 300 µM PMX) for 48 h. The cells were then lysed in RIPA buffer with protease and phosphatase inhibitors (GenDEPOT, Barker, TX, USA). Each sample was loaded with 20 µg of protein and fractionated using SDS-PAGE (Biosesang, Gyeonggi-do, South Korea), followed by wet transfer to nitrocellulose membrane (Bio-Rad Laboratories, Inc., Hercules, CA, USA). Anti-CRT, anti-HMGB-1, GAPDH rabbit mAb (Cell Signaling Technology, Danvers, MA, USA), and anti-rabbit IgG peroxidase (Sigma–Aldrich) antibodies were used.

Nc1nc2[nH]cc(CCc3ccc(C(=O)N[C@@H](CCC(=O)O)C(=O)O)cc3)c2c(=O)[nH]1 [PMX, Pemetrexed]
Mice alive (survival) [1]: 50% | logP [2]: -1.14 ± 0.01 | Antitumor efficacy compared to the control group ([3]; IV 150 mg/kg PMX once every 3 weeks): 60.9% | Body weights compared to the control group ([3]; repeated administration for 3 weeks, all dose groups): did not change significantly | CRT- and HMGB-1-protein content compared to untreated and DL-treated cells [4]: higher
